# Measurements from patent publication US11685766B2, “14-3-3 targeting peptides for cancer treatment” (Creighton University, priority 2019, dated 2023).
# “Also recorded” adds a separate entry of the source. Peptide text beside a SMILES is read from it.
# System: normal human epidermal keratinocytes (nHEK)
# Experiment: Neutral Red Cell Viability assay in normal keratinocytes
# Assay type: cell-based
# Conditions: FIG. 1A dashed line
# Method: Human skin cancer cell lines (SCC12B.2, SCC13, SRB12) were maintained in Dulbecco's modified Eagle's medium (DMEM) (Invitrogen, Carlsbad, Calif., USA) supplemented with 1% penicillin (10 000 U/ml)-streptomycin (10 000 μg/ml) (PenStrep) (Invitrogen) and 10% fetal bovine serum (Gemini Bio-Products, Sacramento, Calif., USA) at 37° C. and 5% CO2. Normal human epidermal keratinocytes (nHEK) (Thermo Scientific, Waltham, Mass., USA) isolated from neonatal foreskin were cultured in EpiLife medium (Invitrogen) supplemented with human keratinocyte growth supplement (Invitrogen) and 1% PenStrep (Invitrogen). […]
# To determine the half maximal inhibitory concentration (IC50) for ES1P2 in SCC12B.2 and nHEK cells, cells were plated in a 96-well plate at a density of 6×10^3 cells/well. […] Neutral Red Cell Viability assays were performed, where absorbance was measured using a Cytation 5 multi-mode plate reader (BioTek). […]
compound,measurement,value
"NCCCC[C@H](NC(=O)[C@H](Cc1c[nH]c2ccccc12)NC(=O)[C@H](Cc1ccc(O)cc1)NC(=O)[C@@H](N)Cc1c[nH]c2ccccc12)C(N)=O [ES1P2, Trp-Tyr-Trp-Lys-NH2] (H-WYWK-NH2)",toxicity to normal keratinocytes,killed SCC cells but not normal keratinocytes; also recorded: nontoxic
